For one data set, the system named is PDE4. Briefly: Inhibition of PDE4 activity ([3H]cAMP hydrolysis, cytosol from human neutrophils). In kind it is biochemical. The settings on record: 0.5 μM cAMP, Motapizone (1 μM) included to suppress PDE3 activity, 15 min at 37° C. As for the experimental part: Method for Measuring Inhibition of PDE4 Activity
PDE4 activity was determined as described by Thompson et al. (Adv Cycl Nucl Res 10: 69-92, 1979) with some modifications (Bauer and Schwabe, Naunyn-Schmiedeberg's Arch Pharmacol 311: 193-198, 1980). At a final assay volume of 200 μl (96 well microtiter plates) the assay mixture contained 20 mM Tris (pH 7.4), 5 mM MgCl2, 0.5 μM cAMP, [^3H]cAMP (about 30,000 cpm/assay), the test compound and an aliquot of cytosol from human neutrophils which mainly contains PDE4 activity as described by Schudt et al. (Naunyn-Schmiedeberg's Arch Pharmacol 344: 682-690, 1991); the PDE3-specific inhibitor Motapizone (1 μM) was included to suppress PDE3 activity originating from contaminating platelets. Serial dilutions of the compounds were prepared in DMSO and further diluted 1:100 (v/v) in the assays to obtain the desired final concentrations of the inhibitors at a DMSO concentration of 1% (v/v) which by itself only slightly affected PDE4 activity.
After preincubation for 5 min at 37° C., the reaction was started by the addition of substrate (cAMP) and the assays were incubated for further 15 min at 37° C. 50 μl of 0.2 N HCl was added to stop the reaction and the assays were left on ice for about 10 min. Following incubation with 25 μg 5′-nucleotidase (Crotalus atrox snake venom) for 10 min at 37° C., the assays were loaded on QAE Sephadex A-25 (1 ml bed volume). The columns were eluted with 2 ml of 30 mM ammonium formiate (pH 6.0) and the eluate was counted for radioactivity. Results were corrected for blank values (measured in the presence of denatured protein) which were below 5% of total radioactivity. […] The IC50 -values for the compounds according to the invention for the inhibition of the PDE4 activity were determined from the concentration-inhibition curves by nonlinear-regression.
The inhibitory values determined for the compounds according to the invention follow from the following table A, in which the numbers of the compounds correspond to the numbers of the examples.

With `COc1ccc(C2=NN(C3CCN(CC(=O)c4cc(Cl)c(N)c(Cl)c4)CC3)C(=O)[C@@H]3CC=CC[C@H]23)cc1OC.Cl` [compound 14, (4aS,8aR)-2-{1-[2-(4-Amino-3,5-dichloro-phenyl)-2-oxo-ethyl]-piperidin-4-yl}-4-(3,4-dimethoxy-phenyl)-4a,5,8,8a-tetrahydro-2H-phthalazin-1-one hydrochloride], the melting point is 206 °C (dec.). Moreover, in the data set with PDE4, the “Inhibition of PDE4 acitivity [measured as -logIC50 (mol/l)]” value stood at 10.33.

Take `COc1ccc(C2=NN(C3CCN(Cc4ccc5ccc(=O)oc5c4)CC3)C(=O)[C@@H]3CC=CC[C@H]23)cc1OC.Cl` [compound 18, (4aS,8aR)-4-(3,4-Dimethoxyphenyl)-2-[1-(2-oxo-2H-chromen-7-ylmethyl)-piperidin-4-yl]-4a,5,8,8a-tetrahydro-2H-phthalazin-1-one hydrochloride]: the melting point lay in the range of 264 to 267 °C. Also, the “Inhibition of PDE4 acitivity [measured as -logIC50 (mol/l)]” value in the data set on PDE4 came to 10.32.

In the case of `COc1ccc(C2=NN(C3CCN(Cc4ccncc4)CC3)C(=O)[C@@H]3CC=CC[C@H]23)cc1OC` [compound 12, (4aS,8aR)-4-(3,4-Dimethoxyphenyl)-2-(1-pyridin-4-ylmethyl-piperidin-4-yl)-4a,5,8,8a-tetrahydro-2H-phthalazin-1-one], the melting point was in the range of 196 to 197 °C. In addition, the “Inhibition of PDE4 acitivity [measured as -logIC50 (mol/l)]” value in the data set on PDE4 is 10.79.
